Assay results published in patent US20150322033A1, “ANTIBACTERIAL AGENT” (priority 2012, published 2015).
Where “and” joins values, the source holds several entries; their conditions need not be identical. Identical values can stand only once. Like-named read-outs stand apart in the source and are kept apart here.

Columns and labels:
[1] = molecular target: T1, GyrA(wt) + GyrB(wt) (Staphylococcus aureus, UniProt P20831); assay: DNA cleavage assay with GyrA(wt) and GyrB(wt); assay type: biochemical
T1 construct: made in house; host or cells: E. coli BL21(DE3)
From the text: The gene sequence encoding the wild-type GyrA of Staphylococcus aureus (henceforth also referred to as “GyrA(wt)”) shown as SEQ ID NO: 1 was cloned into the plasmid pMAL-c2 (produced by New England Biolabs) (the resultant is henceforth also referred to as “pMAL-c2-gyrA”).
The gene sequence encoding the wild-type GyrB of Staphylococcus aureus (henceforth also referred to as “GyrB(wt)”) shown as SEQ ID NO: 2 was cloned into the plasmid pMAL-c2 (produced by New England Biolabs) (the resultant is henceforth also referred to as “pMAL-c2-gyrB”).
(§1) E. coliBL21(DE3) (produced by Invitrogen) was transformed with pMAL-c2-gyrA mentioned above, with pMAL-c2-gyrB mentioned above, or with pMAL-c2-SAGAmut84 containing a mutant gyrA encoding the amino acid sequence of GyrA(wt) in which serine residue at the 84th position from the amino terminus is substituted with a leucine residue (see, Hiramatsu K., Igarashi M., Morimoto Y, Baba T., Umekita M., Akamatsu Y., Int. J. Antimicrob. Agents, 2012 June; 39(6), 478-85). To the culture medium of the resulting transformed Escherichia coli, 1 mM […] (produced by Wako Pure Chemical Industries) was added to induce expression of maltose-binding GyrA(wt), maltose-binding GyrB(wt), or maltose-binding mutant GyrA(S84L), and the bacterium was cultured overnight at 25° C. After completion of the culture, the cells were collected, and suspended in a buffer (20 mM Tris-HCl (pH 8.0), 200 mM sodium chloride, 1 mM ethylenediaminetetraacetic acid (EDTA), 1 mM dithiothreitol (DTT)), a protein extracting reagent (10× BugBuster (registered trademark), produced by Novagen) in a volume of 1/10 of the volume of the buffer, and 2.5 μL/10 mL of the buffer of Benzonase (registered trademark) nuclease (produced by Novagen) were added, the mixture was left standing at 25° C. for 30 minutes, and the cells were disrupted and lysed to obtain a disrupted cell suspension containing the maltose-binding GyrA(wt), maltose-binding GyrB(wt), or maltose-binding mutant GyrA(S84L).
(§2) Then, each disrupted cell suspension mentioned above was added to a column filled with an amylose resin covalently bound with maltose (produced by Novagen). A buffer (20 mM Tris-HCl (pH 8.0), 200 mM sodium chloride, 1 mM EDTA) containing 10 mM maltose was added to the column to elute the maltose-binding GyrA(wt), maltose-binding GyrB(wt), and maltose-binding mutant GyrA(S84L).
(§3) To each eluate, 4 units/1 mL of the eluate of protease (Factor Xa, produced by Amersham) was added, and the mixture was left standing at 25° C. for 3 hours and 30 minutes to cleave the maltose-binding proteins, GyrA(wt), GyrB(wt), and mutant GyrA(S84L) from the maltose-binding GyrA(wt), maltose-binding GyrB(wt), and maltose-binding mutant GyrA(S84L).
(§4) Then, GyrA(wt), GyrB(wt), and mutant GyrA(S84L) were concentrated by using an ultrafiltration unit (YM-50 Filter Unit, produced by Millipore).
(§5) The concentrated GyrA(wt), GyrB(wt), and mutant GyrA(S84L) were each suspended in a buffer (35 mM Tris-HCl (pH 7.5), 24 mM potassium chloride, 6 mM magnesium chloride, 1.8 mM spermidine, 0.36 mg/mL bovine serum albumin, 5 mM DTT, 50 volume % glycerol) at a concentration of 1 μg/μL for GyrA(wt), 2 μg/μL for GyrB(wt), or 1 μg/μL for mutant GyrA(S84L).
A substrate plasmid DNA, pTWV228 (0.4 μg, produced by Takara Bio), and levofloxacin (LVFX) or apigenin were added to a buffer (35 mM Tris-HCl (pH 7.5), 24 mM potassium chloride, 6 mM magnesium chloride, 1.8 mM spermidine, 0.36 mg/mL bovine serum albumin, 5 mM DTT), and 0.15 μL of the enzyme solution of GyrA(wt) and […] of the enzyme solution of GyrB(wt) were added to the mixture to prepare a reaction mixture in a total volume of 20
Levofloxacin was added at a final concentration of 0, 0.5, 1, 2, 4, 8, 16, or 32 μg/mL.
The aforementioned reaction solution was left standing at 25° C. for 30 minutes to allow the reaction. […]

[2] = molecular target: T2, GyrA(S84L) + GyrB(wt) (Staphylococcus aureus, UniProt P20831, S84L); assay: DNA cleavage assay with mutant GyrA(S84L) and GyrB(wt); assay type: biochemical
T2 construct: made in house; host or cells: E. coli BL21(DE3)
From the text: as §1, §2, §3, §4, §5
An assay was performed in the same manner as that of the cleavage of the plasmid DNA with GyrA(wt) and GyrB(wt) mentioned above, provided that 0.15 μL of an enzyme solution of mutant GyrA(S84L) and 0.2 μL of the enzyme solution of GyrB(wt) were added instead of […] of the enzyme solution of GyrA(wt) and 0.2 μL of the enzyme solution of GyrB(wt). In FIGS. 3 and 4, the symbols “S”, “L”, and “N” have the same meanings as those explained for FIGS. 1 and 2.
IC50 value of levofloxacin or apigenin was also calculated from the visualized images shown in FIGS. 3 and 4 in the same manner as that used for the calculation using the results shown in FIGS. 1 and 2.
The DNA cleavage assay was performed with M-246 in the same manner as that used in Example 4.

SMILES | Ratio of cleaved DNA (%) ([1]; 2 μg/mL, Table 14) | Ratio of substrate plasmid DNA (%) ([1]; 2 μg/mL, Table 14) | Ratio of cleaved DNA (%) ([1]; 4 μg/mL, Table 14) | Ratio of substrate plasmid DNA (%) ([1]; 4 μg/mL, Table 14) | Ratio of cleaved DNA (%) ([1]; 8 μg/mL, Table 14) | Ratio of substrate plasmid DNA (%) ([1]; 8 μg/mL, Table 14) | Ratio of cleaved DNA (%) ([1]; 16 μg/mL, Table 14) | Ratio of substrate plasmid DNA (%) ([1]; 16 μg/mL, Table 14) | Ratio of cleaved DNA (%) ([1]; 32 μg/mL, Table 14) | Ratio of substrate plasmid DNA (%) ([1]; 32 μg/mL, Table 14) | also measured
C[C@H]1COc2c(N3CCN(C)CC3)c(F)cc3c(=O)c(C(=O)O)cn1c23 [Levofloxacin, levofloxacin, reference compound] | 58 | 42 | 61 | 39 | 64 | 36 | 70 | 30 | 67 | 33 | Ratio of cleaved DNA (%) ([1]; 0.5 μg/mL, Table 14): 32%; Ratio of substrate plasmid DNA (%) ([1]; 0.5 μg/mL, Table 14): 68%; Ratio of cleaved DNA (%) ([1]; 1 μg/mL, Table 14): 43%; Ratio of substrate plasmid DNA (%) ([1]; 1 μg/mL, Table 14): 57%; Ratio of cleaved DNA (%) ([1]; 4 μg/mL, Table 18): 73%; Ratio of substrate plasmid DNA (%) ([1]; 4 μg/mL, Table 18): 27%; IC50 ([1]; Example 4, Table 14, from ratio of cleaved DNA, read-out: IC50 (μg/mL) GyrA(wt) + GyrB(wt) (converted)): 5.53 µM; IC50 ([2]; Example 4, Table 15, from ratio of cleaved DNA, read-out: IC50 (μg/mL) GyrA(S84L) + GyrB(wt)): > 88.6 µM
O=c1cc(-c2ccc(O)cc2)oc2cc(O)cc(O)c12 [No. 7, 4′,5,7-Trihydroxyflavone] | 34 | 66 | 35 | 65 | 36 | 64 | 35 | 65 | 40 | 60 | Ratio of cleaved DNA (%) ([1]; 64 μg/mL, Table 14): 43%; Ratio of substrate plasmid DNA (%) ([1]; 64 μg/mL, Table 14): 57%; inhibitory activity against the wild-type DNA gyrase ([1]; FIG. 1 and 2): did not exhibit any inhibitory activity; IC50 ([1]; IC50 (μg/mL) GyrA(wt) + GyrB(wt), Example 4, Table 14, from ratio of cleaved DNA): > 474 µM; IC50 ([1]; IC50 GyrA(wt) and GyrB(wt), value in μM): > 474 µM; inhibitory activity against the mutant DNA gyrase ([2]; FIG. 3 and 4): concentration-dependent inhibitory activity; IC50 ([2]; IC50 (μg/mL) GyrA(S84L) + GyrB(wt), Example 4, Table 15, from ratio of cleaved DNA): ~29.6 µM and 29.6 µM; IC50 ([2]; IC50 mutant GyrA(S84L) and GyrB(wt), value in μM): ~29.6 µM
